From patent US11000033B2, “Ketone or oxime compound, and herbicide” (NISSAN CHEMICAL CORPORATION, priority 2014, dated 2021)

Experiments:
Type in all cases: in vivo
Veronica persica = assay: Test Example 4: herbicidal effect by soil treatment (symbol R)
Summary of the method: (§1)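 Seeds were sown in sterilized diluvial soil, covered with about 1.5 cm of soil, and the soil surface was sprayed with a water-diluted emulsion of the compound at a predetermined rate. Plants grew in a greenhouse at 25° C. to 30° C.; effects were scored visually 3 weeks after application.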

[1] = tested on: Echinochloa crus-galli var. crus-galli; assay: Test Example 5: herbicidal effect by foliage application, plastic box (symbol H); settings: 320 g/ha, 3 weeks after application
Summary of the method: (§2)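 After sowing into sterilized diluvial soil and growing two weeks under glass at 25° C. to 30° C., seedlings receive a uniform foliar spray of diluted emulsion. Damage is judged visually three weeks on.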

Cyperus difformis = assay: Test Example 3: herbicidal effect by foliage application, Wagner pot (symbol E); settings: application herbicide amount 320 g/ha; for E herbicidal effect grade: Table 24
Summary of the method: (§3)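 Weeds and rice were sown in alluvial soil under 0.1–0.5 cm of standing water and grown for 14 days in a 25–30 °C greenhouse. An emulsion of the compound, diluted in water to a set dose, was sprayed evenly onto the foliage. Effect was scored against fixed criteria 3 weeks after treatment.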

Abutilon theophrasti = assay: Test Example 5: herbicidal effect by foliage application, plastic box (symbol M); settings: 320 g/ha, 3 weeks after application
Summary of the method: as §2

[2] = tested on: Echinochloa crus-galli var. crus-galli; assay: Test Example 3: herbicidal effect by foliage application, Wagner pot (symbol H); settings: application herbicide amount 320 g/ha; for H (Echinochloa crus-galli var. crus-galli) herbicidal effect grade: Table 24
Summary of the method: as §3

Amaranthus retroflexus = assay: Test Example 4: herbicidal effect by soil treatment (symbol N)
Summary of the method: as §1

transplanted rice plant = assay: Test Example 1: effect on crop, application before weed generation in submerged conditions (symbol a); settings: application herbicide amount 320 g/ha
Summary of the method: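 Alluvial soil pots flooded to 4 cm water, sown with Echinochloa oryzacola, Scirpus juncoides and Monochoria vaginalis, then transplanted with 2.5 leaf stage rice seedlings; pre-emergence application. Greenhouse 25° C. to 30° C.; scored 0–5 by herbicidal ratio 3 weeks after application.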

Alopecurus myosuroides = assay: Test Example 4: herbicidal effect by soil treatment (symbol J)
Summary of the method: as §1

Stellaria media = assay: Test Example 4: herbicidal effect by soil treatment (symbol P)
Summary of the method: as §1

Setaria viridis = assay: Test Example 5: herbicidal effect by foliage application, plastic box (symbol G); settings: 320 g/ha, 3 weeks after application
Summary of the method: as §2

Apera spica-venti [3] = assay: Test Example 4: herbicidal effect by soil treatment (symbol L)
Summary of the method: as §1

Leptochloa chinensis = assay: Test Example 3: herbicidal effect by foliage application, Wagner pot (symbol D); settings: application herbicide amount 320 g/ha; for D (Leptochloa chinensis) herbicidal effect grade: Table 24
Summary of the method: as §3

Apera spica-venti [4] = assay: Test Example 5: herbicidal effect by foliage application, plastic box (symbol L); settings: 320 g/ha, 3 weeks after application
Summary of the method: as §2

soybean [5] = assay: Test Example 5: effect on crop by foliage application, plastic box (symbol d); settings: 320 g/ha, 3 weeks after application
Summary of the method: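 Seeds were sown in spots in sterilized diluvial soil held in a plastic box 21 cm × 13 cm × 7 cm deep, covered with about 1.5 cm of soil, and grown in a greenhouse at 25° C. to 30° C.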

soybean [6] = assay: Test Example 4: effect on crop by soil treatment (symbol d); settings: for d: soybean, effect grade on crop: 320 g/ha
Summary of the method: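 The test used sterilized diluvial soil. Seed was set down in spots and overlaid with about 1.5 cm of soil before growth in a greenhouse kept at 25° C. to 30° C.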

[7] = application herbicide amount 320 g/ha

| Compound | R: Veronica persica, herbicidal effect grade (Veronica persica; 320 g/ha) | H: Echinochloa crus-galli var. crus-galli, herbicidal effect (criteria 0-5) [1] | herbicidal effect on E, grade 0-5 (Cyperus difformis) | M: Abutilon theophrasti, herbicidal effect (criteria 0-5) (Abutilon theophrasti) | herbicidal effect on H (Echinochloa crus-galli var. crus-galli), grade 0-5 [2] | N: Amaranthus retroflexus, herbicidal effect grade (Amaranthus retroflexus; 320 g/ha) | Effect grade on crop, a: transplanted rice plant (transplanted rice plant) | J: Alopecurus myosuroides, herbicidal effect grade (Alopecurus myosuroides; 320 g/ha) | P: Stellaria media, herbicidal effect grade (Stellaria media; 320 g/ha) | G: Setaria viridis, herbicidal effect (criteria 0-5) (Setaria viridis) | L: Apera spica-venti, herbicidal effect grade (Apera spica-venti [3]; 320 g/ha) | H: Echinochloa crus-galli var. crus-galli, herbicidal effect grade [1] | E herbicidal effect grade (Cyperus difformis) | M: Abutilon theophrasti, herbicidal effect grade (Abutilon theophrasti) | H (Echinochloa crus-galli var. crus-galli) herbicidal effect grade [2] | a (transplanted rice plant) effect on crop grade (transplanted rice plant) | G: Setaria viridis, herbicidal effect grade (Setaria viridis) | D (Leptochloa chinensis) herbicidal effect grade (Leptochloa chinensis) | L: Apera spica-venti, herbicidal effect grade (Apera spica-venti [4]) | d: soybean, effect on crop grade (soybean [5]) | also measured |
| --- | --- | --- | --- | --- | --- | --- | --- | --- | --- | --- | --- | --- | --- | --- | --- | --- | --- | --- | --- | --- | --- |
| CC(CC1CC(O)=C(c2c(C)cc(C)cc2C)C1=O)=NOCC#N (stereo not drawn) [1-102] | 0 (Herbicidal ratio of 5% or lower (almost no effect)) | 5 (Herbicidal ratio of 90% or more (almost completely withered)) | 5 (Herbicidal ratio of 90% or more (almost completely withered)) | 0 (Herbicidal ratio of 5% or lower (almost no effect)) | 5 (Herbicidal ratio of 90% or more (almost completely withered)) | 0 (Herbicidal ratio of 5% or lower (almost no effect)) | 5 (Herbicidal ratio of 90% or more (almost completely withered)) | 5 (Herbicidal ratio of 90% or more (almost completely withered)) | 0 (Herbicidal ratio of 5% or lower (almost no effect)) | 5 (Herbicidal ratio of 90% or more (almost completely withered)) | 5 (Herbicidal ratio of 90% or more (almost completely withered)) |  |  |  |  |  |  |  |  |  | herbicidal effect on D (Leptochloa chinensis), grade 0-5 (Leptochloa chinensis): 5 (Herbicidal ratio of 90% or more (almost completely withered)); L: Apera spica-venti, herbicidal effect (criteria 0-5) (Apera spica-venti [4]): 5 (Herbicidal ratio of 90% or more (almost completely withered)); d: soybean, effect on crop (criteria 0-5) (soybean [5]): 0 (Herbicidal ratio of 5% or lower (almost no effect)); d: soybean, effect grade on crop (soybean [6]): 0 (Herbicidal ratio of 5% or lower (almost no effect)) |
| CC(CC1CC(O)=C(c2c(C)cc(C)cc2C)C1=O)=NOCC(C)Cl (stereo not drawn) [1-121] | 0 (Herbicidal ratio of 5% or lower (almost no effect)) | 5 (Herbicidal ratio of 90% or more (almost completely withered)) | 4 (Herbicidal ratio of 70% or higher and lower than 90%) | 3 (Herbicidal ratio of 40% or higher and lower than 70%) | 5 (Herbicidal ratio of 90% or more (almost completely withered)) | 0 (Herbicidal ratio of 5% or lower (almost no effect)) | 5 (Herbicidal ratio of 90% or more (almost completely withered)) | 5 (Herbicidal ratio of 90% or more (almost completely withered)) | 0 (Herbicidal ratio of 5% or lower (almost no effect)) | 5 (Herbicidal ratio of 90% or more (almost completely withered)) | 5 (Herbicidal ratio of 90% or more (almost completely withered)) |  |  |  |  |  |  |  |  |  | herbicidal effect on D (Leptochloa chinensis), grade 0-5 (Leptochloa chinensis): 5 (Herbicidal ratio of 90% or more (almost completely withered)); L: Apera spica-venti, herbicidal effect (criteria 0-5) (Apera spica-venti [4]): 5 (Herbicidal ratio of 90% or more (almost completely withered)); d: soybean, effect on crop (criteria 0-5) (soybean [5]): 2 (Herbicidal ratio of 20% or higher and lower than 40%); d: soybean, effect grade on crop (soybean [6]): 0 (Herbicidal ratio of 5% or lower (almost no effect)) |
| CON=C(C)CC1(C)CC(O)=C(c2c(C)cc(C)cc2C)C1=O (mixture of isomers) [11-002] |  |  |  |  |  |  |  |  |  |  |  | 5 (Herbicidal ratio of 90% or more (almost completely withered)) | 4 (Herbicidal ratio of 70% or higher and lower than 90%) | 0 (Herbicidal ratio of 5% or lower (almost no effect)) | 5 (Herbicidal ratio of 90% or more (almost completely withered)) | 2 (Herbicidal ratio of 20% or higher and lower than 40%) | 4 (Herbicidal ratio of 70% or higher and lower than 90%) | 5 (Herbicidal ratio of 90% or more (almost completely withered)) | 5 (Herbicidal ratio of 90% or more (almost completely withered)) | 1 (Herbicidal ratio of 5% or higher and lower than 20%) | Herbicidal effect grade, R: Veronica persica (Veronica persica; [7]): 0 (Herbicidal ratio of 5% or lower (almost no effect)); Herbicidal effect grade, N: Amaranthus retroflexus (Amaranthus retroflexus; [7]): 0 (Herbicidal ratio of 5% or lower (almost no effect)); Herbicidal effect grade, J: Alopecurus myosuroides (Alopecurus myosuroides; [7]): 3 (Herbicidal ratio of 40% or higher and lower than 70%); Herbicidal effect grade, P: Stellaria media (Stellaria media; [7]): 0 (Herbicidal ratio of 5% or lower (almost no effect)); Herbicidal effect grade, L: Apera spica-venti (Apera spica-venti [3]; [7]): 4 (Herbicidal ratio of 70% or higher and lower than 90%); Effect on crop grade, d: soybean (soybean [6]; [7]): 0 (Herbicidal ratio of 5% or lower (almost no effect)) |
| COc1cc(Br)cc(C)c1C1=C(O)CC(CC(=O)C2CC2)C1=O (racemic) [14-001] |  |  |  |  |  |  |  |  |  |  |  | 5 (Herbicidal ratio of 90% or more (almost completely withered)) | 5 (Herbicidal ratio of 90% or more (almost completely withered)) | 4 (Herbicidal ratio of 70% or higher and lower than 90%) | 5 (Herbicidal ratio of 90% or more (almost completely withered)) | 5 (Herbicidal ratio of 90% or more (almost completely withered)) | 5 (Herbicidal ratio of 90% or more (almost completely withered)) | 5 (Herbicidal ratio of 90% or more (almost completely withered)) | 5 (Herbicidal ratio of 90% or more (almost completely withered)) | 2 (Herbicidal ratio of 20% or higher and lower than 40%) | R: Veronica persica, herbicidal effect grade (Veronica persica; [7]): 0 (Herbicidal ratio of 5% or lower (almost no effect)); N: Amaranthus retroflexus, herbicidal effect grade (Amaranthus retroflexus; [7]): 0 (Herbicidal ratio of 5% or lower (almost no effect)); J: Alopecurus myosuroides, herbicidal effect grade (Alopecurus myosuroides; [7]): 5 (Herbicidal ratio of 90% or more (almost completely withered)); P: Stellaria media, herbicidal effect grade (Stellaria media; [7]): 0 (Herbicidal ratio of 5% or lower (almost no effect)); L: Apera spica-venti, herbicidal effect grade (Apera spica-venti [3]; [7]): 5 (Herbicidal ratio of 90% or more (almost completely withered)); d: soybean, effect on crop grade (soybean [6]; [7]): 0 (Herbicidal ratio of 5% or lower (almost no effect)) |
| CC#Cc1cc(C)c(C2=C(OC(=O)COc3ccccc3)CC(CC(C)=NOCC(F)(F)F)C2=O)c(C)c1 (stereo not drawn) [9-013] |  |  |  |  |  |  |  |  |  |  |  | 5 (Herbicidal ratio of 90% or more (almost completely withered)) | 5 (Herbicidal ratio of 90% or more (almost completely withered)) | 4 (Herbicidal ratio of 70% or higher and lower than 90%) | 5 (Herbicidal ratio of 90% or more (almost completely withered)) | 5 (Herbicidal ratio of 90% or more (almost completely withered)) | 5 (Herbicidal ratio of 90% or more (almost completely withered)) | 5 (Herbicidal ratio of 90% or more (almost completely withered)) | 5 (Herbicidal ratio of 90% or more (almost completely withered)) | 0 (Herbicidal ratio of 5% or lower (almost no effect)) | Herbicidal effect grade, R: Veronica persica (Veronica persica; [7]): 4 (Herbicidal ratio of 70% or higher and lower than 90%); Herbicidal effect grade, N: Amaranthus retroflexus (Amaranthus retroflexus; [7]): 1 (Herbicidal ratio of 5% or higher and lower than 20%); Herbicidal effect grade, J: Alopecurus myosuroides (Alopecurus myosuroides; [7]): 5 (Herbicidal ratio of 90% or more (almost completely withered)); Herbicidal effect grade, P: Stellaria media (Stellaria media; [7]): 0 (Herbicidal ratio of 5% or lower (almost no effect)); Herbicidal effect grade, L: Apera spica-venti (Apera spica-venti [3]; [7]): 5 (Herbicidal ratio of 90% or more (almost completely withered)); Effect on crop grade, d: soybean (soybean [6]; [7]): 0 (Herbicidal ratio of 5% or lower (almost no effect)) |
